By pIC50 is commonly meant the IC50 on a negative log10 scale, so that one unit is a factor of ten.

pIC50: −log10 of the molar value.

From patent publication US8501936B2 (priority 2009, dated 2013) come the findings set out here.

One assay deals with human JAK2 (Homo sapiens (Human), UniProt O60674). As to conditions: read-out: JAK2 IC50.
In a further assay the target is human FAK (Homo sapiens (Human), UniProt Q05397). The conditions noted are these: read-out: FAK IC50.
Sequence of human FAK (Q05397 whole entry): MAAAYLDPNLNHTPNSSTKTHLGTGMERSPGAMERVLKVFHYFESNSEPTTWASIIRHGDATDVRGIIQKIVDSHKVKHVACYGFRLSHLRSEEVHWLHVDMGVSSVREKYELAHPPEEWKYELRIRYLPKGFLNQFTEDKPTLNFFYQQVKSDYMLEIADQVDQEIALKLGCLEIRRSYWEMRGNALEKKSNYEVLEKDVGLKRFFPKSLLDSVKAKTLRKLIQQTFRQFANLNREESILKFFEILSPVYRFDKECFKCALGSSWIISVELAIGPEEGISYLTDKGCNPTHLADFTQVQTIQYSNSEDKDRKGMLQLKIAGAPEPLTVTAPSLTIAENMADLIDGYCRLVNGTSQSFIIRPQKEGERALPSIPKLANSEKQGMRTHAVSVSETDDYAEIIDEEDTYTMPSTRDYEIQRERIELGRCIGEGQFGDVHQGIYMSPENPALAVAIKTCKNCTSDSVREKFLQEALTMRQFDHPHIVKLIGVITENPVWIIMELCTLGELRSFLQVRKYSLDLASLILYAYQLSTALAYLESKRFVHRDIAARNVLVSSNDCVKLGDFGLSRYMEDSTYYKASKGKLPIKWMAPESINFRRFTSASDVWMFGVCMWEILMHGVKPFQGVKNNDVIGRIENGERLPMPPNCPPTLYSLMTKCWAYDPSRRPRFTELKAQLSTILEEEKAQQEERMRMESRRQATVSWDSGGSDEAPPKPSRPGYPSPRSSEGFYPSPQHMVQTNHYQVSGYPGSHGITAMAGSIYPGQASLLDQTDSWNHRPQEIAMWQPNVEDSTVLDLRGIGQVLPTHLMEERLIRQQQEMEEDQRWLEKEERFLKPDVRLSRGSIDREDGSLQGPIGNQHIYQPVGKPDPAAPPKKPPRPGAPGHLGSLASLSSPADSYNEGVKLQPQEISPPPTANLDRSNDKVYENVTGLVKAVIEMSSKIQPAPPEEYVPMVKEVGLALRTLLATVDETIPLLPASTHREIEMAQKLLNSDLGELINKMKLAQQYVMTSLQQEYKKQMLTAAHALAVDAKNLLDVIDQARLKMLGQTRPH

Sequence of human JAK2 (O60674 815-1132): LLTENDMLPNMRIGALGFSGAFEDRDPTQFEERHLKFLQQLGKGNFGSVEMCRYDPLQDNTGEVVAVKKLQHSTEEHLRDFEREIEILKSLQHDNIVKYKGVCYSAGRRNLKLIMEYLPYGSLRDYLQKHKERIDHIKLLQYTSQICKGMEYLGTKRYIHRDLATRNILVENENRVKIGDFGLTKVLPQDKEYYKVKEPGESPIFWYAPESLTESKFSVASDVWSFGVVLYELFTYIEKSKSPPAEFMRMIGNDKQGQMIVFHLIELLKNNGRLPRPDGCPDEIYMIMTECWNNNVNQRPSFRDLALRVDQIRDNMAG

For the compound `COc1ccc(C(F)(F)F)cc1-c1cccn2nc(Nc3ccc4c(c3)CCN(CCS(C)(=O)=O)CC4)nc12` [Example 322, [3-(2-Methanesulfonyl-ethyl)-2,3,4,5-tetrahydro-1H-3-benzazepin-7-yl]-[8-(2-methoxy-5-trifluoromethyl-phenyl)-[1,2,4]triazolo[1,5-a]pyridine-2-yl]-amine], the pIC50 on human JAK2 was 7.89; at human FAK it was 6.24.
Take `COc1ccc(F)cc1-c1cccn2nc(Nc3ccc4c(c3)CCN(CC(=O)N(C)C)CC4)nc12` [Example 323, 2-{7-[8-(5-Fluoro-2-methoxy-phenyl)-[1,2,4]triazolo[1,5-a]pyridin-2-ylamino]-1,2,4,5-tetrahydro-3-benzazepin-3-yl}-N,N-dimethyl-acetamide]: the pIC50 is 7.95 at human JAK2 and 6.16 on human FAK.
The like results for `COc1cc(F)ccc1-c1cccn2nc(Nc3ccc4c(c3)CCN(CC(=O)N(C)C)CC4)nc12` [Example 324, 2-{7-[8-(4-Fluoro-2-methoxy-phenyl)-[1,2,4]triazolo[1,5-a]pyridin-2-ylamino]-1,2,4,5-tetrahydro-3-benzazepin-3-yl}-N,N-dimethyl-acetamide] were, in that order, 7.33 and 5.52.
The like results for `FC(F)COc1ccc(C(F)(F)F)cc1-c1cccn2nc(Nc3ccc4c(c3)CCNCC4)nc12` [Example 328] were, in that order, 6.59 and 6.00.
On to `CN(C)C(=O)CN1CCc2ccc(Nc3nc4c(-c5cc(C(F)(F)F)ccc5OCC(F)F)cccn4n3)cc2CC1` [Example 329, 2-(7-{8-[2-(2,2-Difluoro-ethoxy)-5-trifluoromethyl-phenyl]-[1,2,4]triazolo[1,5-a]pyridin-2-ylamino}-1,2,4,5-tetrahydro-3-benzazepin-3-yl)-N,N-dimethyl-acetamide], for which the pIC50 was 6.50 at human JAK2 and 6.00 on human FAK.
Taken in the same sequence, the figures for `COc1cc(Cl)ccc1-c1cccn2nc(Nc3ccc4c(c3)CCN(CC(=O)N(C)C)C4)nc12` [Example 331, 2-{6-[8-(4-Chloro-2-methoxy-phenyl)-[1,2,4]-triazolo[1,5-a]pyridin-2-ylamino]-3,4-dihydro-1H-isoquinolin-2-yl}-N,N-dimethyl-acetamide] were 7.67 and 5.19.
The like results for `COc1ccc(C(F)(F)F)cc1-c1cccn2nc(Nc3ccc4c(c3)CCN(C(=O)OC(C)(C)C)C4)nc12` [Example 336, 6-[8-(2-Methoxy-5-trifluoromethyl-phenyl)-[1,2,4]triazolo[1,5-a]pyridin-2-ylamino]-3,4-dihydro-1H-isoquinoline-2-carboxylic acid tert-butyl ester] were, in that order, 5.94 and 5.00.
For the compound `COc1ccc(C(F)(F)F)cc1-c1cccn2nc(Nc3ccc4c(c3)CCNC4)nc12` [Example 337, [8-(2-Methoxy-5-trifluoromethyl-phenyl)-[1,2,4]triazolo[1,5-a]pyridine-2-yl]-(1,2,3,4-tetrahydro-isoquinolin-6-yl)-amine], the pIC50 on human JAK2 was 7.38; at human FAK, 6.11.
The like results for `COc1ccc(C(F)(F)F)cc1-c1cccn2nc(Nc3ccc4c(c3)CCN(CC(=O)N(C)C)C4)nc12` [Example 338, 2-{6-[8-(2-Methoxy-5-trifluoromethyl-phenyl)-[1,2,4]-triazolo[1,5-a]pyridin-2-ylamino]-3,4-dihydro-1H-isoquinolin-2-yl}-N,N-dimethyl-acetamide] were, in that order, 7.38 and 5.86.
Taken in the same sequence, the figures for `CN1CCN(c2cccc(Nc3nc4c(-c5ccc(F)cc5)cccn4n3)c2)CC1` [Example 365, [8-(4-Fluoro-phenyl)-[1,2,4]-triazolo[1,5-a]pyridin-2-yl]-[3-(4-methyl-piperazin-1-yl)-phenyl]-amine] were 7.54 and 6.00.
Taken in the same sequence, the figures for `CN(C)C(=O)CN1CCc2ccc(Nc3nc4c(-c5ccccc5OCC(F)F)cccn4n3)cc2CC1` [Example 368, 2-(7-{8-[2-(2,2-Difluoro-ethoxy)-phenyl]-[1,2,4]triazolo[1,5-a]pyridin-2-ylamino}-1,2,4,5-tetrahydro-3-benzazepin-3-yl)-N,N-dimethyl-acetamide] were 6.71 and 5.61.
As to `CS(=O)(=O)c1ccc(-c2cccn3nc(Nc4ccc5c(c4)CCNCC5)nc23)c(OCC(F)F)c1` [Example 370, {8-[2-(2,2-Difluoro-ethoxy)-4-methanesulfonyl-phenyl]-[1,2,4]triazolo[1,5-a]pyridin-2-yl}-(2,3,4,5-tetrahydro-1H-3-benzazepin-7-yl)-amine], the pIC50 on human JAK2 was 7.21; on human FAK, 6.00.
Taken in the same sequence, the figures for `CS(=O)(=O)c1ccc(OCC(F)F)c(-c2cccn3nc(Nc4ccc5c(c4)CCNCC5)nc23)c1` [Example 372, {8-[2-(2,2-Difluoro-ethoxy)-5-methanesulfonyl-phenyl]-[1,2,4]triazolo[1,5-a]pyridin-2-yl}-(2,3,4,5-tetrahydro-1H-3-benzazepin-7-yl)-amine] were 6.22 and 5.00.
The like results for `CN(C)C(=O)CN1CCc2ccc(Nc3nc4c(-c5cc(S(C)(=O)=O)ccc5OCC(F)F)cccn4n3)cc2CC1` [Example 373, 2-(7-{8-[2-(2,2-Difluoro-ethoxy)-5-methanesulfonyl-phenyl]-[1,2,4]triazolo[1,5-a]pyridin-2-ylamino}-1,2,4,5-tetrahydro-3-benzazepin-3-yl)-N,N-dimethyl-acetamide] were, in that order, 6.30 and 5.00.
The like results for `FC(F)(F)c1cccc(-c2cccn3nc(Nc4ccc5c(c4)CCNCC5)nc23)c1` [Example 375, (2,3,4,5-Tetrahydro-1H-3-benzazepin-7-yl)-[8-(3-trifluoromethyl-phenyl)-[1,2,4]triazolo[1,5-a]pyridin-2-yl]-amine] were, in that order, 7.37 and 6.37.
On to `FC(F)COc1ccc(Cl)cc1-c1cccn2nc(Nc3ccc4c(c3)CCNCC4)nc12` [Example 377, {8-[5-Chloro-(2,2-difluoro-ethoxy)-phenyl]-[1,2,4]triazolo[1,5-a]pyridin-2-yl}-(2,3,4,5-tetrahydro-1H-3-benzazepin-7-yl)-amine], for which the results for the pIC50 on human JAK2 and on human FAK were 7.36 and 6.35, respectively.
In the case of `CN(C)C(=O)CN1CCc2ccc(Nc3nc4c(-c5cc(F)ccc5OCC(F)F)cccn4n3)cc2CC1` [Example 378, 2-(7-{8-[2-(2,2-Difluoro-ethoxy)-5-fluoro-phenyl]-[1,2,4]triazolo[1,5-a]pyridin-2-ylamino}-1,2,4,5-tetrahydro-3-benzazepin-3-yl)-N,N-dimethyl-acetamide], the pIC50 is 6.28 on human JAK2 and 5.90 on human FAK.
Taken in the same sequence, the figures for `CC(C)COc1ccc(C(F)(F)F)cc1-c1cccn2nc(Nc3ccc4c(c3)CCN(CC(=O)N(C)C)CC4)nc12` [Example 380] were 5.52 and 5.52.
Taken in the same sequence, the figures for `CN(C)C(=O)N1CCc2ccc(Nc3nc4c(-c5cc(Cl)ccc5OCC(F)F)cccn4n3)cc2CC1` [Example 382, 7-{8-[5-Chloro-2-(2,2-difluoro-ethoxy)-phenyl]-[1,2,4]triazolo[1,5-a]pyridin-2-ylamino}-1,2,4,5-tetrahydro-3-benzazepine-3-carboxylic acid dimethylamide] were 6.70 and 5.70.
